# Legend:
# SF-295 = test: NCI cytotoxicity screen, CNS Cancer panel; format: cell-based; settings: Homo sapiens, single dose 10 µM, negative = lethal, read-out: Percent growth inhibition
# Method: (§1) Cytotoxicity was performed at National Cancer Institute (NCI), Bethesda, USA as per their protocols.
# SF-268 = test: NCI cytotoxicity screen, CNS Cancer panel; format: cell-based; settings: Homo sapiens, single dose 10 µM, negative = lethal, read-out: Percent growth inhibition
# Method: as §1
# SNB-19 = test: NCI cytotoxicity screen, CNS Cancer panel; format: cell-based; settings: Homo sapiens; SNB-19; single dose 10 µM; negative = lethal; read-out: Percent growth inhibition
# Method: as §1
# U251 = test: NCI cytotoxicity screen, CNS Cancer panel; format: cell-based; settings: Homo sapiens, U-251; U251; single dose 10 µM; negative = lethal; read-out: Percent growth inhibition
# Method: as §1
# SNB-75 = test: NCI cytotoxicity screen, CNS Cancer panel; format: cell-based; settings: Homo sapiens, single dose 10 µM, negative = lethal, read-out: Percent growth inhibition
# Method: as §1
# SF-539 = test: NCI cytotoxicity screen, CNS Cancer panel; format: cell-based; settings: Homo sapiens, single dose 10 µM, negative = lethal, read-out: Percent growth inhibition
# Method: as §1
# SW-620 = test: NCI cytotoxicity screen, Colon Cancer panel; format: cell-based, human; settings: Homo sapiens, single dose 10 µM, negative = lethal, read-out: Percent growth inhibition
# Method: as §1
# KM12 = test: NCI cytotoxicity screen, Colon Cancer panel; format: cell-based, human; settings: Homo sapiens, single dose 10 µM, negative = lethal, read-out: Percent growth inhibition
# Method: as §1
# HCC-2998 = test: NCI cytotoxicity screen, Colon Cancer panel; format: cell-based, human; settings: Homo sapiens; HCC-2998; single dose 10 µM; negative = lethal; read-out: Percent growth inhibition
# Method: as §1
# COLO 205 = test: NCI cytotoxicity screen, Colon Cancer panel; format: cell-based; settings: Homo sapiens, single dose 10 µM, negative = lethal, read-out: Percent growth inhibition
# Method: as §1
# HCT-15 = test: NCI cytotoxicity screen, Colon Cancer panel; format: cell-based; settings: Homo sapiens, single dose 10 µM, negative = lethal, read-out: Percent growth inhibition
# Method: as §1
# HCT-116 = test: NCI cytotoxicity screen, Colon Cancer panel; format: cell-based; settings: Homo sapiens, single dose 10 µM, negative = lethal, read-out: Percent growth inhibition
# Method: as §1
# HT29 = test: NCI cytotoxicity screen, Colon Cancer panel; format: cell-based; settings: Homo sapiens, HT-29; HT29; single dose 10 µM; negative = lethal; read-out: Percent growth inhibition
# Method: as §1
# SK-MEL-28 = test: NCI cytotoxicity screen, Melanoma panel; format: cell-based; settings: Homo sapiens, single dose 10 µM, negative = lethal, read-out: Percent growth inhibition
# Method: as §1
# SK-MEL-2 = test: NCI cytotoxicity screen, Melanoma panel; format: cell-based; settings: Homo sapiens, single dose 10 µM, negative = lethal, read-out: Percent growth inhibition
# Method: as §1
# MALME-3M = test: NCI cytotoxicity screen, Melanoma panel; format: cell-based; settings: Homo sapiens; MALME-3M; single dose 10 µM; negative = lethal; read-out: Percent growth inhibition
# Method: as §1
# UACC-257 = test: NCI cytotoxicity screen, Melanoma panel; format: cell-based; settings: Homo sapiens, single dose 10 µM, negative = lethal, read-out: Percent growth inhibition
# Method: as §1
# SK-MEL-5 = test: NCI cytotoxicity screen, Melanoma panel; format: cell-based; settings: Homo sapiens, single dose 10 µM, negative = lethal, read-out: Percent growth inhibition
# Method: as §1
# MDA-MB-435 = test: NCI cytotoxicity screen, Melanoma panel; format: cell-based; settings: Homo sapiens, MDA-MB-435, read-out: Percent growth inhibition
# Method: as §1
# OVCAR-4 = test: NCI cytotoxicity screen, Ovarian Cancer panel; format: cell-based; settings: Homo sapiens; OVCAR-4; single dose 10 µM; negative = lethal; read-out: Percent growth inhibition
# Method: as §1
# NCI/ADR-RES = test: NCI cytotoxicity screen, Ovarian Cancer panel; format: cell-based; settings: Homo sapiens, single dose 10 µM, negative = lethal, read-out: Percent growth inhibition
# Method: as §1
# OVCAR-8 = test: NCI cytotoxicity screen, Ovarian Cancer panel; format: cell-based; settings: Homo sapiens, single dose 10 µM, negative = lethal, read-out: Percent growth inhibition
# Method: as §1
# OVCAR-5 = test: NCI cytotoxicity screen, Ovarian Cancer panel; format: cell-based; settings: Homo sapiens, single dose 10 µM, negative = lethal, read-out: Percent growth inhibition
# Method: as §1
# SK-OV-3 = test: NCI cytotoxicity screen, Ovarian Cancer panel; format: cell-based; settings: Homo sapiens, single dose 10 µM, negative = lethal, read-out: Percent growth inhibition
# Method: as §1
# IGROV1 = test: NCI cytotoxicity screen, Ovarian Cancer panel; format: cell-based; settings: Homo sapiens, IGROV-1, single dose 10 µM, negative = lethal, read-out: Percent growth inhibition
# Method: as §1
# NCI-522 = test: NCI cytotoxicity screen, Non-Small Cell Lung Cancer panel; format: cell-based, human; settings: Homo sapiens; NCI-522; single dose 10 µM; negative = lethal; read-out: Percent growth inhibition
# Method: as §1
# NCI-H322M = test: as above; format: cell-based, human; settings: Homo sapiens, single dose 10 µM, negative = lethal, read-out: Percent growth inhibition
# Method: as §1
# NCI-H226 = test: as above; format: cell-based, human; settings: Homo sapiens, single dose 10 µM, negative = lethal, read-out: Percent growth inhibition
# Method: as §1
# NCI-H23 = test: as above; format: cell-based, human; settings: Homo sapiens, single dose 10 µM, negative = lethal, read-out: Percent growth inhibition
# Method: as §1
# DU-145 = test: NCI cytotoxicity screen, Prostate Cancer panel; format: cell-based, human; settings: Homo sapiens, single dose 10 µM, negative = lethal, read-out: Percent growth inhibition
# Method: as §1
# PC-3 = test: NCI cytotoxicity screen, Prostate Cancer panel; format: cell-based, human; settings: Homo sapiens, single dose 10 µM, negative = lethal, read-out: Percent growth inhibition
# Method: as §1
# HOP-92 = test: NCI cytotoxicity screen, Non-Small Cell Lung Cancer panel; format: cell-based; settings: Homo sapiens, single dose 10 µM, negative = lethal, read-out: Percent growth inhibition
# Method: as §1
# HOP-62 = test: as above; format: cell-based; settings: Homo sapiens, single dose 10 µM, negative = lethal, read-out: Percent growth inhibition
# Method: as §1
# EXVX = test: as above; format: cell-based; settings: Homo sapiens; EXVX; single dose 10 µM; negative = lethal; read-out: Percent growth inhibition
# Method: as §1
# NCI-H460 = test: as above; format: cell-based; settings: Homo sapiens, single dose 10 µM, negative = lethal, read-out: Percent growth inhibition
# Method: as §1
# A549/ATCC = test: as above; format: cell-based; settings: Homo sapiens; A549/ATCC; single dose 10 µM; negative = lethal; read-out: Percent growth inhibition
# Method: as §1
# T-47D = test: NCI cytotoxicity screen, Breast Cancer panel; format: cell-based; settings: Homo sapiens, T47D, T-47D; single dose 10 µM; negative = lethal; read-out: Percent growth inhibition
# Method: as §1
# HS 578 T = test: NCI cytotoxicity screen, Breast Cancer panel; format: cell-based; settings: Homo sapiens; HS 578T; single dose 10 µM; negative = lethal; read-out: Percent growth inhibition
# Method: as §1
# MDA-MB-231/ATCC = test: NCI cytotoxicity screen, Breast Cancer panel; format: cell-based; settings: Homo sapiens, MDA-MB-231, read-out: Percent growth inhibition
# Method: as §1
# MDA-MB-468 = test: NCI cytotoxicity screen, Breast Cancer panel; format: cell-based; settings: Homo sapiens, single dose 10 µM, negative = lethal, read-out: Percent growth inhibition
# Method: as §1
# MCF7 = test: NCI cytotoxicity screen, Breast Cancer panel; format: cell-based; settings: Homo sapiens, single dose 10 µM, negative = lethal, read-out: Percent growth inhibition
# Method: as §1
# BT-549 = test: NCI cytotoxicity screen, Breast Cancer panel; format: cell-based; settings: Homo sapiens, single dose 10 µM, negative = lethal, read-out: Percent growth inhibition
# Method: as §1
# OVCAR-3 = test: NCI cytotoxicity screen, Ovarian Cancer panel; format: cell-based, human; settings: Homo sapiens; OVCAR-3; single dose 10 µM; negative = lethal; read-out: Percent growth inhibition
# Method: as §1
# SR = test: NCI cytotoxicity screen, Leukemia panel; format: cell-based; settings: Homo sapiens, single dose 10 µM, negative = lethal, read-out: Percent growth inhibition
# Method: as §1
# MOLT-4 = test: NCI cytotoxicity screen, Leukemia panel; format: cell-based; settings: Homo sapiens, MOLT-4, MOLT-4; single dose 10 µM; negative = lethal; read-out: Percent growth inhibition
# Method: as §1
# CCRF-CEM = test: NCI cytotoxicity screen, Leukemia panel; format: cell-based; settings: Homo sapiens, single dose 10 µM, negative = lethal, read-out: Percent growth inhibition
# Method: as §1
# HL-60(TB) = test: NCI cytotoxicity screen, Leukemia panel; format: cell-based; settings: Homo sapiens, HL-60, HL-60(TB); single dose 10 µM; negative = lethal; read-out: Percent growth inhibition
# Method: as §1
# K-562 = test: NCI cytotoxicity screen, Leukemia panel; format: cell-based; settings: Homo sapiens, K562; K-562; single dose 10 µM; negative = lethal; read-out: Percent growth inhibition
# Method: as §1
# RPMI-8226 = test: NCI cytotoxicity screen, Leukemia panel; format: cell-based; settings: Homo sapiens; RPMI-8226; single dose 10 µM; negative = lethal; read-out: Percent growth inhibition
# Method: as §1
# M14 = test: NCI cytotoxicity screen, Melanoma panel; format: cell-based, human; settings: Homo sapiens, single dose 10 µM, negative = lethal, read-out: Percent growth inhibition
# Method: as §1
# LOX IMVI = test: NCI cytotoxicity screen, Melanoma panel; format: cell-based, human; settings: Homo sapiens, single dose 10 µM, negative = lethal, read-out: Percent growth inhibition
# Method: as §1
# SN12C = test: NCI cytotoxicity screen, Renal Cancer panel; format: cell-based; settings: Homo sapiens, single dose 10 µM, negative = lethal, read-out: Percent growth inhibition
# Method: as §1
# ACHN = test: NCI cytotoxicity screen, Renal Cancer panel; format: cell-based; settings: Homo sapiens, single dose 10 µM, negative = lethal, read-out: Percent growth inhibition
# Method: as §1
# A498 = test: NCI cytotoxicity screen, Renal Cancer panel; format: cell-based; settings: Homo sapiens, single dose 10 µM, negative = lethal, read-out: Percent growth inhibition
# Method: as §1
# RXF 393 = test: NCI cytotoxicity screen, Renal Cancer panel; format: cell-based; settings: Homo sapiens, single dose 10 µM, negative = lethal, read-out: Percent growth inhibition
# Method: as §1
# UO-31 = test: NCI cytotoxicity screen, Renal Cancer panel; format: cell-based; settings: Homo sapiens, single dose 10 µM, negative = lethal, read-out: Percent growth inhibition
# Method: as §1
# TK-10 = test: NCI cytotoxicity screen, Renal Cancer panel; format: cell-based, human; settings: Homo sapiens, single dose 10 µM, negative = lethal, read-out: Percent growth inhibition
# Method: as §1
# 786-0 = test: NCI cytotoxicity screen, Renal Cancer panel; format: cell-based, human; settings: Homo sapiens, single dose 10 µM, negative = lethal, read-out: Percent growth inhibition
# Method: as §1
# EtBr-CT-DNA complex = tested on: EtBr-CT-DNA complex; set-up: method as in printed; settings: used in Eq. 4; ref not given; cited from earlier work
structure (smiles),measurement,setting,value
"Brc1cn2ccnc2c(-c2ccc3c(c2)ncn3C2CCCCC2)n1 [Compound 8, 6-bromo-8-(1-cyclohexyl-1H-benzo[d]imidazol-5-yl)imidazo[1,2-a]pyrazine]",inhibition at 10 µM,SF-295,7.58%
same,inhibition at 10 µM,SF-268,5.8%
same,inhibition at 10 µM,SNB-19,10.5%
same,inhibition at 10 µM,U251,< 1%
same,inhibition at 10 µM,SNB-75,16.4%
same,inhibition at 10 µM,SF-539,6.65%
same,inhibition at 10 µM,SW-620,< 1%
same,inhibition at 10 µM,KM12,< 1%
same,inhibition at 10 µM,HCC-2998,3.13%
same,inhibition at 10 µM,COLO 205,< 1%
same,inhibition at 10 µM,HCT-15,4.25%
same,inhibition at 10 µM,HCT-116,6.06%
same,inhibition at 10 µM,HT29,4.48%
same,inhibition at 10 µM,SK-MEL-28,< 1%
same,inhibition at 10 µM,SK-MEL-2,0.53%
same,inhibition at 10 µM,MALME-3M,< 1%
same,inhibition at 10 µM,UACC-257,< 1%
same,inhibition at 10 µM,SK-MEL-5,8.35%
same,inhibition at 10 µM,MDA-MB-435,< 1%
same,inhibition at 10 µM,OVCAR-4,9.25%
same,inhibition at 10 µM,NCI/ADR-RES,5.47%
same,inhibition at 10 µM,OVCAR-8,3.55%
same,inhibition at 10 µM,OVCAR-5,< 1%
same,inhibition at 10 µM,SK-OV-3,6.59%
same,inhibition at 10 µM,IGROV1,8.45%
same,inhibition at 10 µM,NCI-522,15.2%
same,inhibition at 10 µM,NCI-H322M,10.9%
same,inhibition at 10 µM,NCI-H226,3.73%
same,inhibition at 10 µM,NCI-H23,8.76%
same,inhibition at 10 µM,DU-145,< 1%
same,inhibition at 10 µM,PC-3,10.3%
same,inhibition at 10 µM,HOP-92,21.9%
same,inhibition at 10 µM,HOP-62,13%
same,inhibition at 10 µM,EXVX,10.3%
same,inhibition at 10 µM,NCI-H460,3.26%
same,inhibition at 10 µM,A549/ATCC,4.8%
same,inhibition at 10 µM,T-47D,25.3%
same,inhibition at 10 µM,HS 578 T,2.68%
same,inhibition at 10 µM,MDA-MB-231/ATCC,3.12%
same,inhibition at 10 µM,MDA-MB-468,6.27%
same,inhibition at 10 µM,MCF7,37.6%
same,inhibition at 10 µM,BT-549,6.38%
same,inhibition at 10 µM,OVCAR-3,< 1%
same,inhibition at 10 µM,SR,20.6%
same,inhibition at 10 µM,MOLT-4,17.4%
same,inhibition at 10 µM,CCRF-CEM,< 1%
same,inhibition at 10 µM,HL-60(TB),10.5%
same,inhibition at 10 µM,K-562,17.4%
same,inhibition at 10 µM,RPMI-8226,< 1%
same,inhibition at 10 µM,M14,< 1%
same,inhibition at 10 µM,LOX IMVI,9.14%
same,inhibition at 10 µM,SN12C,< 1%
same,inhibition at 10 µM,ACHN,< 1%
same,inhibition at 10 µM,A498,3.51%
same,inhibition at 10 µM,RXF 393,< 1%
same,inhibition at 10 µM,UO-31,40.1%
same,inhibition at 10 µM,TK-10,< 1%
same,inhibition at 10 µM,786-0,1.3%
CC[n+]1c(-c2ccccc2)c2cc(N)ccc2c2ccc(N)cc21 [ethidium bromide],known binding constant KEtBr,EtBr-CT-DNA complex,1e+07 M⁻¹
